ChEMBL document CHEMBL1126058, “Development of potent and selective CCK-A receptor agonists from Boc-CCK-4: tetrapeptides containing Lys(N epsilon)-amide residues” (J Med Chem, 1992)
Where a SMILES comes first, the peptide text is derived from it. [ ]: non-standard residue; d: D form. The star is where a group is joined. Hydrocinnamoyl(4-OSO3H) = O=C(CCc1ccc(OS(=O)(=O)O)cc1)*; Acryloyl(3-(3-pyridyl),E) = O=C(/C=C/c1cccnc1)*; Propanoyl(3-(4-F-phenyl)) = O=C(CCc1ccc(F)cc1)*; Propanoyl(3-(4-Cl-Ph)) = O=C(CCc1ccc(Cl)cc1)*; 2Naphthoyl(6-OH) = O=C(c1ccc2cc(O)ccc2c1)*; Quinoline3carbonyl = O=C(c1cnc2ccccc2c1)*; X13 = O=C(c1ccc2cc(OS(=O)(=O)O)ccc2c1)*; X23 = O=C(/C=C/c1ccc(OS(=O)(=O)O)cc1)*; X6 = O=C(/C=C\c1ccc([N+](=O)[O-])cc1)*; Desaminotyrosyl = O=C(CCc1ccc(O)cc1)*; Propanoyl(3-cHex) = O=C(CCC1CCCCC1)*; X15 = O=C(/C=C\c1ccc(C(F)(F)F)cc1)*; Butanoyl(4-Ph) = O=C(CCCc1ccccc1)*; Hydrocinnamoyl = O=C(CCc1ccccc1)*; X17 = COc1ccc(/C=C\C(=O)*)c(OC)c1; X24 = O=C(/C=C/c1c[nH]c2ccccc12)*; NMeF = CN[C@@H](Cc1ccccc1)C(=O)O; X30 = O=C(CCc1ccc(C(F)(F)F)cc1)*; X14 = O=C(c1cc2cc(O)ccc2[nH]1)*; X2 = O=C(c1cc2cc(Cl)ccc2[nH]1)*; X11 = O=C(/C=C\c1ccc(O)cc1)*; X29 = O=C(/C=C\c1cccc(O)c1)*; X3 = O=C(/C=C/c1ccc(O)cc1)*; X4 = O=C(/C=C\c1ccc(F)cc1)*; X9 = O=C(/C=C/c1cccs1)*; Boc = CC(C)(C)OC(=O)*

What was measured:
[1] = species on record: Cavia porcellus; experiment: Hydrolysis of phosphoinositide (PI) relative to maximal response elicited by CCK-8 in guinea pig pancreas.; type: functional
[2] = target: T1, Cholecystokinin receptor type A (Cavia porcellus, UniProt Q63931); experiment: Inhibition of specific binding of [125I]BH-CCK-8 in guinea pig pancreas.
T1 sequence (Q63931 whole entry): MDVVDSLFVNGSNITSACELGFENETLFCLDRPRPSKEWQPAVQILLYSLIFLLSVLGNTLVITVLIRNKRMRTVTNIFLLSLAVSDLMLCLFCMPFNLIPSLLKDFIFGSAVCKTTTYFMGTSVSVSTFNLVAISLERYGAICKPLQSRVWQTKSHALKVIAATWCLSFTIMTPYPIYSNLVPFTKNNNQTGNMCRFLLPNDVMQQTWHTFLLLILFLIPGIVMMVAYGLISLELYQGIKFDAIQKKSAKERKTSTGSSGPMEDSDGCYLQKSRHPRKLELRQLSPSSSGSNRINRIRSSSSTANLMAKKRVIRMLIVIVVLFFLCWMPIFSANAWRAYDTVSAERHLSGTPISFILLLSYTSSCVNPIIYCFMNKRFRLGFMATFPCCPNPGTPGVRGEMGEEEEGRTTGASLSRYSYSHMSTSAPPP

[3] = species on record: Cavia porcellus; experiment: Stimulation of amylase release in guinea pig pancreas; type: functional

Row | Compound | Max [1] [%] | IC50 [2] [nM] | EC50 [3] [nM]
1 | CN(C(=O)[C@H](CC(=O)O)NC(=O)[C@H](CCCCNC(=O)/C=C/c1cccnc1)NC(=O)[C@H](Cc1c[nH]c2ccccc12)NC(=O)OC(C)(C)C)[C@@H](Cc1ccccc1)C(N)=O (Boc-WK(Acryloyl(3-(3-pyridyl),E))D[NMeF]-NH2) | 74 | 28 | 28
2 | CC(C)(C)OC(=O)N[C@@H](Cc1c[nH]c2ccccc12)C(=O)N[C@@H](CCCCNC(=O)/C=C/c1cccs1)C(=O)N[C@@H](CC(=O)O)C(=O)N[C@@H](Cc1ccccc1)C(N)=O (Boc-WK(X9)DF-NH2) | 66 | 50 | 20
3 | CC(C)(C)OC(=O)N[C@@H](Cc1c[nH]c2ccccc12)C(=O)N[C@@H](CCCCNC(=O)CCc1ccccc1)C(=O)N[C@@H](CC(=O)O)C(=O)N[C@@H](Cc1ccccc1)C(N)=O (Boc-WK(Hydrocinnamoyl)DF-NH2) | 49 | 310 | 850
4 | CC(C)(C)OC(=O)N[C@@H](Cc1c[nH]c2ccccc12)C(=O)N[C@@H](CCCCNC(=O)CCCc1ccccc1)C(=O)N[C@@H](CC(=O)O)C(=O)N[C@@H](Cc1ccccc1)C(N)=O (Boc-WK(Butanoyl(4-Ph))DF-NH2) | 19 | 910 | 30000
5 | CC(C)(C)OC(=O)N[C@@H](Cc1c[nH]c2ccccc12)C(=O)N[C@@H](CCCCNC(=O)c1cnc2ccccc2c1)C(=O)N[C@@H](CC(=O)O)C(=O)N[C@@H](Cc1ccccc1)C(N)=O (Boc-WK(Quinoline3carbonyl)DF-NH2) | 46 | 33 | 39
6 | CC(C)(C)OC(=O)N[C@@H](Cc1c[nH]c2ccccc12)C(=O)N[C@@H](CCCCNC(=O)CCc1ccc(F)cc1)C(=O)N[C@@H](CC(=O)O)C(=O)N[C@@H](Cc1ccccc1)C(N)=O (Boc-WK(Propanoyl(3-(4-F-phenyl)))DF-NH2) | 68 | 250 | 450
7 | CC(C)(C)OC(=O)N[C@@H](Cc1c[nH]c2ccccc12)C(=O)N[C@@H](CCCCNC(=O)/C=C\c1ccc([N+](=O)[O-])cc1)C(=O)N[C@@H](CC(=O)O)C(=O)N[C@@H](Cc1ccccc1)C(N)=O (Boc-WK(X6)DF-NH2) | 64 | 57 | 27
8 | CC(C)(C)OC(=O)N[C@@H](Cc1c[nH]c2ccccc12)C(=O)N[C@@H](CCCCNC(=O)/C=C\c1ccc(O)cc1)C(=O)N[C@@H](CC(=O)O)C(=O)N[C@@H](Cc1ccccc1)C(N)=O (Boc-WK(X11)DF-NH2) | 76 | 16 | 3.9
9 | CC(C)(C)OC(=O)N[C@@H](Cc1c[nH]c2ccccc12)C(=O)N[C@@H](CCCCNC(=O)CCc1ccc(Cl)cc1)C(=O)N[C@@H](CC(=O)O)C(=O)N[C@@H](Cc1ccccc1)C(N)=O (Boc-WK(Propanoyl(3-(4-Cl-Ph)))DF-NH2) | 51 | 410 | 170
10 | COc1ccc(/C=C\C(=O)NCCCC[C@H](NC(=O)[C@H](Cc2c[nH]c3ccccc23)NC(=O)OC(C)(C)C)C(=O)N[C@@H](CC(=O)O)C(=O)N[C@@H](Cc2ccccc2)C(N)=O)c(OC)c1 (Boc-WK(X17)DF-NH2) | 82 | 38 | 14
11 | CC(C)(C)OC(=O)N[C@@H](Cc1c[nH]c2ccccc12)C(=O)N[C@@H](CCCCNC(=O)/C=C/c1c[nH]c2ccccc12)C(=O)N[C@@H](CC(=O)O)C(=O)N[C@@H](Cc1ccccc1)C(N)=O (Boc-WK(X24)DF-NH2) | 55 | 19 | 30
12 | CC(C)(C)OC(=O)N[C@@H](Cc1c[nH]c2ccccc12)C(=O)N[C@@H](CCCCNC(=O)CCc1ccc(C(F)(F)F)cc1)C(=O)N[C@@H](CC(=O)O)C(=O)N[C@@H](Cc1ccccc1)C(N)=O (Boc-WK(X30)DF-NH2) | 77 | 390 | 30000
13 | CC(C)(C)OC(=O)N[C@@H](Cc1c[nH]c2ccccc12)C(=O)N[C@@H](CCCCNC(=O)CCC1CCCCC1)C(=O)N[C@@H](CC(=O)O)C(=O)N[C@@H](Cc1ccccc1)C(N)=O (Boc-WK(Propanoyl(3-cHex))DF-NH2) | 40 | 310 | 30000
14 | CN(C(=O)[C@H](CC(=O)O)NC(=O)[C@H](CCCCNC(=O)/C=C/c1ccc(OS(=O)(=O)O)cc1)NC(=O)[C@H](Cc1c[nH]c2ccccc12)NC(=O)OC(C)(C)C)[C@@H](Cc1ccccc1)C(N)=O (Boc-WK(X23)D[NMeF]-NH2) | 74 | 22 | 2.9
15 | CC(C)(C)OC(=O)N[C@@H](Cc1c[nH]c2ccccc12)C(=O)N[C@@H](CCCCNC(=O)c1cc2cc(Cl)ccc2[nH]1)C(=O)N[C@@H](CC(=O)O)C(=O)N[C@@H](Cc1ccccc1)C(N)=O (Boc-WK(X2)DF-NH2) | 27 | 110 | 62
16 | CC(C)(C)OC(=O)N[C@@H](Cc1c[nH]c2ccccc12)C(=O)N[C@@H](CCCCNC(=O)c1cc2cc(O)ccc2[nH]1)C(=O)N[C@@H](CC(=O)O)C(=O)N[C@@H](Cc1ccccc1)C(N)=O (Boc-WK(X14)DF-NH2) | 23 | 14 | 68
17 | CC(C)(C)OC(=O)N[C@@H](Cc1c[nH]c2ccccc12)C(=O)N[C@@H](CCCCNC(=O)c1ccc2cc(OS(=O)(=O)O)ccc2c1)C(=O)N[C@@H](CC(=O)O)C(=O)N[C@@H](Cc1ccccc1)C(N)=O (Boc-WK(X13)DF-NH2) | 49 | 2.9 | 3.5
18 | CN(C(=O)[C@H](CC(=O)O)NC(=O)[C@H](CCCCNC(=O)c1ccc2cc(O)ccc2c1)NC(=O)[C@H](Cc1c[nH]c2ccccc12)NC(=O)OC(C)(C)C)[C@@H](Cc1ccccc1)C(N)=O (Boc-WK(2Naphthoyl(6-OH))D[NMeF]-NH2) | 52 | 3.8 | 2.4
19 | CC(C)(C)OC(=O)N[C@@H](Cc1c[nH]c2ccccc12)C(=O)N[C@@H](CCCCNC(=O)/C=C\c1ccc(C(F)(F)F)cc1)C(=O)N[C@@H](CC(=O)O)C(=O)N[C@@H](Cc1ccccc1)C(N)=O (Boc-WK(X15)DF-NH2) | 60 | 220 | 55
20 | CN(C(=O)[C@H](CC(=O)O)NC(=O)[C@H](CCCCNC(=O)/C=C/c1ccc(O)cc1)NC(=O)[C@H](Cc1c[nH]c2ccccc12)NC(=O)OC(C)(C)C)[C@@H](Cc1ccccc1)C(N)=O (Boc-WK(X3)D[NMeF]-NH2) | 76 | […] | 3
21 | CC(C)(C)OC(=O)N[C@@H](Cc1c[nH]c2ccccc12)C(=O)N[C@@H](CCCCNC(=O)c1ccc2cc(O)ccc2c1)C(=O)N[C@@H](CC(=O)O)C(=O)N[C@@H](Cc1ccccc1)C(N)=O (Boc-WK(2Naphthoyl(6-OH))DF-NH2) | 50 | 4.5 | 3.5
22 | CC(C)(C)OC(=O)N[C@@H](Cc1c[nH]c2ccccc12)C(=O)N[C@@H](CCCCNC(=O)/C=C\c1cccc(O)c1)C(=O)N[C@@H](CC(=O)O)C(=O)N[C@@H](Cc1ccccc1)C(N)=O (Boc-WK(X29)DF-NH2) | 54 | 22 | 59
23 | CC(C)(C)OC(=O)N[C@@H](Cc1c[nH]c2ccccc12)C(=O)N[C@@H](CCCCNC(=O)/C=C\c1ccc(F)cc1)C(=O)N[C@@H](CC(=O)O)C(=O)N[C@@H](Cc1ccccc1)C(N)=O (Boc-WK(X4)DF-NH2) | 74 | 65 | 16
24 | CC(C)(C)OC(=O)N[C@@H](Cc1c[nH]c2ccccc12)C(=O)N[C@@H](CCCCNC(=O)CCc1ccc(OS(=O)(=O)O)cc1)C(=O)N[C@@H](CC(=O)O)C(=O)N[C@@H](Cc1ccccc1)C(N)=O (Boc-WK(Hydrocinnamoyl(4-OSO3H))DF-NH2) | 68 | 76 | 98
25 | CC(C)(C)OC(=O)N[C@@H](Cc1c[nH]c2ccccc12)C(=O)N[C@@H](CCCCNC(=O)/C=C/c1cccnc1)C(=O)N[C@@H](CC(=O)O)C(=O)N[C@@H](Cc1ccccc1)C(N)=O (Boc-WK(Acryloyl(3-(3-pyridyl),E))DF-NH2) | 60 | 21 | 38
26 | CN(C(=O)[C@H](CC(=O)O)NC(=O)[C@H](CCCCNC(=O)CCc1ccc(O)cc1)NC(=O)[C@H](Cc1c[nH]c2ccccc12)NC(=O)OC(C)(C)C)[C@@H](Cc1ccccc1)C(N)=O (Boc-WK(Desaminotyrosyl)D[NMeF]-NH2) | 77 | 30 | 32
